Assay results as given in the SangsterLogP compilation.

Assay: method code SF-HPLC, from DOI: 10.1016/j.ecoenv.2011.11.024
Conditions: pH 2.0

Row | SMILES | logD
1 | Sc1ccc(Cl)cc1 | 2.66
2 | Fc1cc(F)c(F)c(S)c1F | 1.76
3 | Sc1ccccc1Cl | 2.27
4 | Cc1ccc(S)cc1 | 3.27
5 | Sc1cc(Cl)ccc1Cl | 2.48
6 | Sc1c(Cl)cccc1Cl | 2.35
7 | Cc1cccc(C)c1S | 4.02
8 | Sc1ccc(Br)cc1 | 2.72
9 | Sc1cccc(Cl)c1Cl | 2.44
10 | Cc1ccc(C)c(S)c1 | 3.92
11 | Fc1cccc(S)c1 | 2.12
12 | Sc1ccc(Cl)cc1Cl | 2.49
13 | Fc1ccccc1S | 1.9
14 | COc1cccc(S)c1 | 2.93
15 | Cc1cccc(S)c1 | 3.13
16 | Sc1cccc(Cl)c1 | 2.47
17 | Fc1ccc(S)cc1 | 2.92
18 | COc1ccc(S)cc1OC | 3.32
19 | Sc1cccc(Br)c1 | 2.48
20 | Cc1ccc(S)c(C)c1 | 3.77
21 | Sc1ccccc1Br | 2.44
22 | Sc1cc(Cl)cc(Cl)c1 | 2.43
23 | Cc1ccc(S)cc1C | 3.62
24 | Cc1ccccc1S | 3.52
